This is an account of results in US9572828B2, “Treatment for melanoma” (The Board of Regents of the University of Texas System, priority 2013, dated 2017).

Series [1] concerns BRAFV600E/K mutant advanced or malignant melanoma. To be noted: cited from earlier work.
For series [2] the following is noted: 4 hours after 0.5 mg/kg injection (FIG. 1C).
Series [3] concerns primary melanomas from patients. The experiment in a line: xenograft assay, digitoxin and/or GSK1120212. Type of series: in vivo, NSG mice. To be noted: 0.5 mg/kg/day each agent by oral gavage; melanomas from multiple patients, with and without BRAF mutations.
Protocol: Melanoma cells were injected subcutaneously in the right flanks of immunocompromised NSG mice. When tumors became palpable, mice were randomized to four different treatments. […] Control mice received vehicle only (200 μl 0.5% promethylcellulose, 0.2% Tween80 and 5% DMSO per day). Tumors were measured every 2-3 days with calipers.
In these experiments, metastatic melanoma cells were injected subcutaneously in the right flanks of immunocompromised NSG mice. When tumors became palpable, mice were randomized to four different treatments. […] Control mice received vehicle only (200 μl 0.5% promethylcellulose, 0.2% Tween80 and 5% DMSO per day). Tumors were measured every 2-3 days with calipers and bioluminescence imaging was performed when the diameter of the tumors in vehicle treated mice reached 2 cm.
The conditions of series [4]: human, in vivo; cited from earlier work.
For series [5] the following is noted: human, in vivo; cited from earlier work. This is another data set of the same source.

For `CC(=O)Nc1cccc(-n2c(=O)n(C3CC3)c(=O)c3c(Nc4ccc(I)cc4F)n(C)c(=O)c(C)c32)c1` [Trametinib], in series [1] (MEKi class effect), the chorioretinopathy is below 1% and the decreased ejection fraction is 7%. In series [1] (Trametinib arm), the “Grade 3 hypertension” value was 12% and the “Grade 3 rash” value is given as 7%.

On to `C[C@H]1O[C@@H](O[C@H]2[C@@H](O)C[C@H](O[C@H]3[C@@H](O)C[C@H](O[C@H]4CC[C@@]5(C)[C@H](CC[C@@H]6[C@@H]5CC[C@]5(C)[C@@H](C7=CC(=O)OC7)CC[C@]65O)C4)O[C@@H]3C)O[C@@H]2C)C[C@H](O)[C@@H]1O` [digitoxin], for which the “doses in the plasma of mice” value in series [2] was “fell within the therapeutic range in humans”. The “growth of human melanoma xenografts” value in series [3] was “slowed the growth”.

Turning to `C[C@H]1O[C@@H](O[C@H]2[C@@H](O)C[C@H](O[C@H]3[C@@H](O)C[C@H](O[C@H]4CC[C@@]5(C)[C@H](CC[C@@H]6[C@@H]5C[C@@H](O)[C@]5(C)[C@@H](C7=CC(=O)OC7)CC[C@]65O)C4)O[C@@H]3C)O[C@@H]2C)C[C@H](O)[C@@H]1O` [digoxin], the half-life entry in series [4] was “about 36 hours”. Further, in series [5], the “frequency of common adverse effects (loss of appetite, nausea, vomiting, diarrhea etc.)” value was ≥ 1 % of patients and the “plasma concentration at which adverse effects are rare” value is below 0.8 ng/mL.
